Source: patent US6346535B1, “Fungicidal mixtures” (American Cyanamid Company, priority 1999, dated 2002)
Like-named read-outs stand apart in the source and are kept apart here.

Experiments:
Type in all cases: in vivo
[1] = tested on: Blumeria graminis on wheat; experiment: Greenhouse trial, 4 day curative, Blumeria graminis on wheat; conditions: compound alone
Description: The trials are carried out under greenhouse (Examples 1 to 18) or field conditions (Example 19) in residual or curative applications. The fungicides are applied in single treatments, or in a combination comprising a benzophenone of formula I and a compound selected from (A) through (E) as defined above. The compounds are applied in form of an aqueous spray mix obtained from a concentrated formulation or the technical material. […] Seed is planted in 6 cm diameter plastic pots and maintained in the greenhouse. […] When the primary leaf is fully expanded (in the case of cereals) or several leaves are present (in the case of dicots), formulated test compounds are sprayed with a three nozzle overhead fungicide sprayer to near run-off. Alternatively, a single nozzle overhead track sprayer is used for application of the compounds to cereals at a rate of 200 liters/ha (l/ha). Plants are then allowed to air-dry. […] Inoculation precedes treatment in the case of curative evaluations and follows treatment in case of residual evaluations. For inoculation of powdery mildew disease, plants are set up on greenhouse benches with bottom watering mats and inoculated by dusting them with conidia from infected plants. Between inoculation and treatment for curative evaluations and between treatment and inoculation for residual evaluations, plants are maintained in the greenhouse with bottom watering. For inoculation of non-powdery mildew diseases, an aqueous spore suspension of the pathogen is applied to the plant and the plants are kept 1-2 days in a moist infection chamber before being returned to the greenhouse where they are maintained by bottom watering. […] Disease on the foliage as percent leaf area with disease symptoms/signs is evaluated about 7 days after inoculation. In the case of wheat, the tips and bases of the leaves are excluded from the evaluation. [formula] […] Compounds are dissolved in acetone prior to addition of the water; the Tween 20 can be added through either the acetone or the water. Dilutions are made using the solvent/surfactant system. Formulated compounds are prepared using deionized water. Assessments of the diseases took place at the indicated day after the application of the compounds. Per cent infected leaf area infected was evaluated. […] Synergy of a fungicide mixture was determined by comparing the actual (observed) fungicidal activity of the mixture to the expected fungicidal activity of the mixture as calculated using the COLBY formula given hereinabove.

[2] = tested on: Blumeria graminis on wheat; experiment: Greenhouse trial, 3 day protective, Blumeria graminis on wheat; conditions: Table V, compound alone
Description: The fungicides are applied in single treatments, or in a combination comprising a benzophenone of formula I and a compound selected from (A) through (E) as defined above. The compounds are applied in form of an aqueous spray mix obtained from a concentrated formulation or the technical material.
(§1) 1. Seed is planted in 6 cm diameter plastic pots and maintained in the greenhouse.
(§2) 2. When the primary leaf is fully expanded (in the case of cereals) or several leaves are present (in the case of dicots), formulated test compounds are sprayed with a three nozzle overhead fungicide sprayer to near run-off. Alternatively, a single nozzle overhead track sprayer is used for application of the compounds to cereals at a rate of 200 liters/ha (l/ha). Plants are then allowed to air-dry.
(§3) 3. Inoculation precedes treatment in the case of curative evaluations and follows treatment in case of residual evaluations. For inoculation of powdery mildew disease, plants are set up on greenhouse benches with bottom watering mats and inoculated by dusting them with conidia from infected plants. Between inoculation and treatment for curative evaluations and between treatment and inoculation for residual evaluations, plants are maintained in the greenhouse with bottom watering. For inoculation of non-powdery mildew diseases, an aqueous spore suspension of the pathogen is applied to the plant and the plants are kept 1-2 days in a moist infection chamber before being returned to the greenhouse where they are maintained by bottom watering.
(§4) 4. Disease on the foliage as percent leaf area with disease symptoms/signs is evaluated about 7 days after inoculation. In the case of wheat, the tips and bases of the leaves are excluded from the evaluation. [formula]
(§5) 1. Technical compounds are formulated in a solvent/surfactant system consisting of 5% acetone and 0.05% Tween 20 in deionized water. Compounds are dissolved in acetone prior to addition of the water; the Tween 20 can be added through either the acetone or the water. Dilutions are made using the solvent/surfactant system. Formulated compounds are prepared using deionized water.
(§6) Assessments of the diseases took place at the indicated day after the application of the compounds. Per cent infected leaf area infected was evaluated. The efficacy of the compounds/compounds mixtures to control the diseases was calculated by using the formula given above under item 4: […]
(§7) Synergy of a fungicide mixture was determined by comparing the actual (observed) fungicidal activity of the mixture to the expected fungicidal activity of the mixture as calculated using the COLBY formula given hereinabove.
Fungicidal Efficacy of the Mixture of BP-5+Triforine (3 Day Protective) Against Blumeria graminis on Wheat
Fungicidal Efficacy of the Mixture of BP-1+Triadimefon (3 Day Protective) Against Blumeria graminis on Wheat

[3] = tested on: Erysiphe cichoracearum on cucumbers; experiment: Greenhouse trial, 4 day residual, Erysiphe cichoracearum on cucumbers; conditions: Golovinomyces cichoracearum, 96 h, read-out: Observed Efficacy; for pest or weed control at 0.4 ppm: dose rate 0.4 ppm; for pest or weed control at 10 ppm: dose rate 10 ppm; for pest or weed control at 50 ppm: dose rate 50 ppm
Summary of the method: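 Cucumber plants were sprayed to near run-off with compounds or mixtures (5% acetone/0.05% Tween 20 aqueous). Four days later they were inoculated by dusting with Erysiphe cichoracearum conidia. Percent diseased leaf area was assessed about 7 days after inoculation, and efficacy and Colby synergy were calculated from it.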

[4] = tested on: Pyrenophora teres on barley; experiment: Greenhouse trial, 4 day residual, Pyrenophora teres on barley; conditions: Pyrenophora teres, 96 h, Table XIII (Example 13), 4 day residual, read-out: Observed Efficacy
[5] = tested on: Blumeria graminis f. sp. tritici on wheat; experiment: Greenhouse trial, 2 day curative, Blumeria graminis f. sp. tritici on wheat; conditions: Table XVII, compound alone
Description: The trials are carried out under greenhouse (Examples 1 to 18) or field conditions (Example 19) in residual or curative applications. The fungicides are applied in single treatments, or in a combination comprising a benzophenone of formula I and a compound selected from (A) through (E) as defined above. The compounds are applied in form of an aqueous spray mix obtained from a concentrated formulation or the technical material.
as §1, §2, §3, §4, §5, §6, §7
Fungicidal Efficacy of the Mixture of Different Benzophenones+Metconazole (2 Day Curative) Against Blumeria graminis f. sp. tritici on Wheat
The tank mixes were obtained from technical material of the benzophenones BP-2 and BP-4 and metconazole.

Cercospora beticola = experiment: Field trial against the sugar beet disease Cercospora beticola; conditions: Table XIX, compound alone
Description: The trials are carried out under greenhouse (Examples 1 to 18) or field conditions (Example 19) in residual or curative applications. The fungicides are applied in single treatments, or in a combination comprising a benzophenone of formula I and a compound selected from (A) through (E) as defined above. The compounds are applied in form of an aqueous spray mix obtained from a concentrated formulation or the technical material. For the field study formulated benzophenones BP-1 through BP-4 and formulated compounds from (A) through (E) were used. The compounds are applied according to good agricultural practice in form of an aqueous spray mix obtained from concentrated formulation or the technical material at a rate of 400 l/ha. The disease control is evaluated according to the formula given for the greenhouse tests. Fungicidal Efficacy of the Mixture of BP-1+Metconazole in the Field Against the Sugar Beet Disease Cercospora beticola The tank mix was obtained from a SC formulation containing 100 g of BP-1 per liter and a SL formulation containing 60 g of metconazole per liter.

[6] = Table XIV (Example 14), 4 day residual

SMILES: CC(C)(C)C(=O)C(Oc1ccc(Cl)cc1)n1cncn1 (stereo not drawn) [triadimefon]
- Observed Efficacy ([1]; Table III, dose rate 25 ppm): 12%
- Observed Efficacy ([1]; Table III, dose rate 125 ppm): 30%
- Observed Efficacy ([2]; dose rate 25 ppm): 24%
- pest or weed control at 0.4 ppm [3, 6]: 0%
- pest or weed control at 2 ppm ([3]; Table XIV (Example 14), 4 day residual, dose rate 2 ppm): 6%
- pest or weed control at 10 ppm [3, 6]: 23%
- pest or weed control at 50 ppm [3, 6]: 47%

SMILES: CC1(C)CCC(Cc2ccc(Cl)cc2)C1(O)Cn1cncn1 (stereo not drawn) [Metconazole]
- pest or weed control at 0.4 ppm ([3]; Table XI, compound alone): 2%
- pest or weed control at 10 ppm ([3]; Table XI, compound alone): 75%
- pest or weed control at 50 ppm ([3]; Table XI, compound alone): 99%
- pest or weed control at 0.4 ppm ([4]; dose rate 0.4 ppm): 0%
- pest or weed control at 10 ppm ([4]; dose rate 10 ppm): 47%
- Observed Efficacy ([5]; dose rate 0.33 ppm): 0%
- Observed Efficacy ([5]; dose rate 1 ppm): 2%
- Observed Efficacy ([5]; dose rate 3 ppm): 7%
- Observed Efficacy ([5]; dose rate 9 ppm): 14%
- Observed Efficacy ([5]; dose rate 27 ppm): 40%
- Observed Efficacy (Cercospora beticola; dose rate 90 g/ha): 58%

SMILES: CCCCOc1c(OC)c(OC)cc(C)c1C(=O)c1c(Cl)cccc1Cl [BP-1, 6′-butoxy-2,6-dichloro-4′,5′-dimethoxy-2′-methylbenzophenone]
- Observed Efficacy ([1]; Table I, dose rate 25 ppm): 1%
- Observed Efficacy ([1]; Table I, dose rate 125 ppm): 42%
- Observed Efficacy ([1]; Table II, dose rate 25 ppm): 1%
- Observed Efficacy ([1]; Table II, dose rate 125 ppm): 42%
- Observed Efficacy ([1]; Table III, dose rate 25 ppm): 1%
- Observed Efficacy ([1]; Table III, dose rate 125 ppm): 42%
- Observed Efficacy ([2]; dose rate 1 ppm): 44%
- Observed Efficacy ([2]; dose rate 5 ppm): 78%
- Observed Efficacy (Cercospora beticola; dose rate 250 g/ha): 42.5%
